We go through one compound from patent publication US20220395608A1, “WATER SOLUBLE BIOADHESIVES” (THE GOVERNING COUNCIL OF THE UNIVERSITY OF TORONTO, priority 2019, published 2022).

In data set [1] the test system is A10 smooth muscle cell line. Description: DNA mass quantification (Hoechst 33258) cytotoxicity assay, direct contact, ISO 10993-5. It counts as cell-based. To be noted: A10 cells, relative to DMEM negative control, mean ± SD, n = 4. Here is the method:
(§1) Cytotoxicity Assays: In vitro cytotoxicity of adhesive formulations was assessed by direct contact with cells, according to ISO 10993-5 [35], which describes test methods to evaluate in vitro cytotoxicity of medical devices and, therefore, determine the in vitro biological response of mammalian cells using appropriate parameters. DNA mass quantification and Water-soluble tetrazolium (WST-1) assays were used to evaluate the toxicity of the formulations to a cell line. Negative and positive controls consisted of growth media with untreated cells and 5% Dimethyl sulfoxide (DMSO), respectively.
Cell Culture and Sample Preparation: A10 smooth muscle cell line (ATCC, CRL-1476™) were cultured in Dulbecco's modified Eagle's medium (DMEM), supplemented with 100 U mL^−1 penicillin/100 μg of streptomycin and 10% fetal bovine serum in a humidified atmosphere at 37° C. with 5% C02. The medium was changed every other day, allowing the cells to grow and reach confluency. When the cells reached 80-90% confluence, they were passaged following treatment with 0.25% trypsin-EDTA solution. This procedure was repeated until the cells entered their standard cellular cycle. Samples of adhesives were pre-conditioned in an incubator with DMEM for 24 h. […]
DNA mass quantification: At each time-point, cells were lysed with ice-cold lysis buffer (0.05% Triton X-100, 50 mM EDTA in PBS) for 1 h and tested for DNA assay as previously described. […] Then, 10 μL of cell lysate was added to the dye and read against a calf thymus DNA standard in a fluorescence microplate reader (BioTek Cytation 3, Biotek, Winooski, Vt., USA), with the excitation wavelength set at 360 nm and the emission wavelength observed at 460 nm.
(§2) Statistical analysis: Data was analyzed using the software PASW Statistics 21.0 (SPSS Inc, Chicago, Ill., USA). Two-Way analysis of variance (ANOVA) and Tukey's multiple comparison post-hoc tests will be used to determine a statistical significance between the groups for the DNA mass quantification and WST-1 assays. […]

For data set [2], the system named is A10 smooth muscle cell line. Description: WST-1 cell viability assay, direct contact, ISO 10993-5. It counts as cell-based. To be noted: A10 cells, relative to DMEM negative control, mean ± SD, n = 4. Here is the method: as §1
Cell Culture and Sample Preparation: A10 smooth muscle cell line (ATCC, CRL-1476™) were cultured in Dulbecco's modified Eagle's medium (DMEM), supplemented with 100 U mL^−1 penicillin/100 μg of streptomycin and 10% fetal bovine serum in a humidified atmosphere at 37° C. with 5% C02. The medium was changed every other day, allowing the cells to grow and reach confluency. When the cells reached 80-90% confluence, they were passaged following treatment with 0.25% trypsin-EDTA solution. This procedure was repeated until the cells entered their standard cellular cycle. Samples of adhesives were pre-conditioned in an incubator with DMEM for 24 h. Then, cells were seeded onto the samples, to which 200 μL of A10 suspension (approximately 25,000 cells/mL) was added. The seeded specimens were confined in the wells of a 96-well plate for 24 h, 72 h and 7 days.
WST-1 assay: For the WST assay, after removing media and rinsing with 1× with PBS, 200 μL of DMEM was added to each well. […] The absorbance was read using a multi-mode reader (BioTek Cytation 3, Biotek, Winooski, Vt., USA) at 450 nm, with a reference wavelength of 650 nm. […]
as §2
In general terms: Tetrazolium dyes change colour on reduction, which living cells bring about.

Structures are written as SMILES.

On to `C[S+](C)[O-]` [5% DMSO, Dimethyl sulfoxide], for which the “Relative DNA mass (%)” value worked out at 15.3 ± 5.3% in data set [1] (24 h), 1.3 ± 1.9% in data set [1] (72 h) and 1.4 ± 1.6% in data set [1] (7 d). Also, the “Relative Cell viability (%)” value in data set [2] (WST-1, 24 h) was determined as 18.4 ± 0.9%; in data set [2] (WST-1, 72 h) it was 4.4 ± 1.1%; in data set [2] (WST-1, 7 d), 1.0 ± 0.5%.
